Test results taken from PubChem BioAssay AID1259408 (Genetic Toxicology Data Bank (GENE-TOX), 2018).
The source made the active and inactive calls. No rule for the calls is given here. Numbered stars: 1 amine (or outer) side, 2 acyl side, 3 side chain; on linkers, the order of the positions; unused ones are H or OH. Peptide text beside a SMILES is read from it. CO = O=C([*:1])[*:2]

Test system: GENE-TOX genotoxicity assays, various organisms and cells
Assay: GENE-TOX mutagenicity studies
Details: for call: Assay Type: In vivo carcinogenicity studies
[1] = Species/Cell Type: Mouse prostate cells, Assay Type: Cell transformation, Assay Code: CTM+, Evaluation Type: Evaluation A (Pre-1980)
[2] = Species/Cell Type: Mammalian polychromatic erythrocytes, Assay Type: Micronucleus test, chromosome aberrations, Assay Code: MNTT, Evaluation Type: Evaluation B (Post-1980)
[3] = Species/Cell Type: Drosophila melanogaster, Assay Type: Sex-linked recessive lethal gene mutation, Assay Code: SRL+, Evaluation Type: Evaluation A (Pre-1980)
[4] = Species/Cell Type: Saccharomyces cerevisiae, Assay Type: Mitotic recombination or gene conversion, Assay Code: YEC+, Evaluation Type: Evaluation A (Pre-1980)
[5] = Species/Cell Type: Salmonella typhimurium (one or more of the five standard strains: TA98, TA100, TA1535, TA1537, and TA1538), Assay Type: Histidine reverse gene mutation, Ames assay, Assay Code: SALT, Evaluation Type: Evaluation A (Pre-1980)
[6] = Species/Cell Type: Human, Assay Type: Sister-chromatid exchange (SCE) in vitro, Assay Code: SC1+, Evaluation Type: Evaluation B (Post-1980)
[7] = Species/Cell Type: Drosophila melanogaster, Assay Type: Sex-linked recessive lethal gene mutation, Assay Code: SRLT, Evaluation Type: Evaluation A (Pre-1980)
[8] = Species/Cell Type: Nonhuman, Assay Type: Sister-chromatid exchange (SCE) in vitro, Assay Code: SC2+D, Dose Response: With dose response, Evaluation Type: Evaluation A (Pre-1980)
[9] = Species/Cell Type: Nonhuman, Assay Code: CCG+, Evaluation Type: Evaluation A (Pre-1980)
[10] = Species/Cell Type: Nonhuman, Assay Type: Sister-chromatid exchange (SCE) in vitro, Assay Code: SC2T, Evaluation Type: Evaluation B (Post-1980)
[11] = Species/Cell Type: Saccharomyces cerevisiae, Assay Type: Mitotic recombination or gene conversion, Assay Code: YEH-, Evaluation Type: Evaluation A (Pre-1980)
[12] = Species/Cell Type: Salmonella typhimurium (one or more of the five standard strains: TA98, TA100, TA1535, TA1537, and TA1538), Assay Type: Histidine reverse gene mutation, Ames assay, Assay Code: SAL+, Evaluation Type: Evaluation A (Pre-1980)
[13] = Species/Cell Type: Human lymphocytes, Assay Type: Sister-chromatid exchange (SCE) in vitro, Assay Code: SCL+D, Dose Response: With dose response, Evaluation Type: Evaluation B (Post-1980)
[14] = Species/Cell Type: Human, Assay Type: Sister-chromatid exchange (SCE) in vitro, Assay Code: SC1+D, Dose Response: With dose response, Evaluation Type: Evaluation B (Post-1980)
[15] = Species/Cell Type: Saccharomyces cerevisiae, Assay Type: Reverse gene mutation, Assay Code: YERT, Evaluation Type: Evaluation A (Pre-1980)

In the case of CCNCCNc1ccc(CO)c2sc3cc(Cl)ccc3c(=O)c12, the mutagenic call (Species/Cell Type: Mouse lymphoma (L5178Y) cells, Assay Type: Forward gene mutation at the thymidine kinase (TK) locus, chromosome aberrations, Assay Code: L51+, Evaluation Type: Evaluation A (Pre-1980)) is reported as “active; positive”.

In the case of Cc1ccc2cc3ccc4c(F)cccc4c3cc2c1, the mutagenic call [1] is reported as “active; positive”.

With CCNP(=S)(OC)O/C(C)=C/C(=O)OC(C)C (stereo not given) (tested in a mixture with another compound) the mutagenic call [2] was “no conclusion”.

In the case of CN(C)N=Nc1ccc(Br)cc1, the mutagenic call [3] is reported as “active; positive”, the mutagenic call (Species/Cell Type: Mammalian polychromatic erythrocytes, Assay Type: Micronucleus test, chromosome aberrations, Assay Code: MNT+, Evaluation Type: Evaluation A (Pre-1980)) is reported as “active; positive” and the mutagenic call [4] is reported as “active; positive”.

In the case of COC12C(=O)N(C)C(=O)N(C)C1(OC)N(C)C(=O)N2C (stereo not given), the mutagenic call (Species/Cell Type: Allium cepa, Assay Type: Chromosome aberrations, Assay Code: ALC-, Evaluation Type: Evaluation A (Pre-1980)) is reported as “inactive; negative”.

NS(=O)(=O)c1cc(C(=O)O)c(NCc2ccco2)cc1Cl was tested, and the mutagenic call (Species/Cell Type: Human, Assay Type: Sister-chromatid exchange (SCE) in vitro, Assay Code: SC1T, Evaluation Type: Evaluation B (Post-1980)) was “no conclusion”, the mutagenic call (Species/Cell Type: Saccharomyces cerevisiae, Assay Type: Mitotic recombination or gene conversion, Assay Code: YEC-*, Activation: With metabolic activation, Evaluation Type: Evaluation A (Pre-1980)) was “inactive; negative” and the mutagenic call [5] was “no conclusion”.

With CCOc1ccccc1C(N)=O the mutagenic call [6] was “active; positive”.

For F/C(=C(/F)C(F)(F)F)C(F)(F)F, the mutagenic call [7] was “no conclusion”.

In the case of CN(CCCC(=O)O)N=O, the mutagenic call [5] is reported as “no conclusion”.

In the case of Cc1c2c(cc3c1ccc1ccccc13)C=C[C@@H](O)[C@@H]2O, the mutagenic call (Species/Cell Type: Chinese hamster lung (V79) cells, Assay Type: Forward gene mutation at the HPRT or ouabain locus, Assay Code: V79+, Evaluation Type: Evaluation A (Pre-1980)) is reported as “active; positive”, the mutagenic call [1] is reported as “active; positive” and the call (Species/Cell Type: Nonhuman, Assay Code: CCGT, Evaluation Type: Evaluation A (Pre-1980)) is reported as “no conclusion”. For the same compound, the mutagenic call [8] was “active; positive”.

In the case of [Be]=[O], the call [9] is reported as “active; positive”.

With NC(Cc1ccc(N(CCCl)CCCl)cc1)C(=O)O (stereo not given) the mutagenic call [3] was “active; positive” and the call [9] was “active; positive”.

Cc1cc2ccc(F)cc2c2ccc3ccccc3c12 was tested, and the mutagenic call [5] was “no conclusion”.

In the case of CC(=O)[O-].CC(=O)[O-].O.O.O.[Pb+2], the mutagenic call (Species/Cell Type: Allium cepa, Assay Type: Chromosome aberrations, Assay Code: ALC+D, Dose Response: With dose response, Evaluation Type: Evaluation A (Pre-1980)) is reported as “active; positive” and the mutagenic call [10] is reported as “no conclusion”.

With CC(=O)OC[C@]12C[C@H](OC(=O)CC(C)C)C(C)=C[C@H]1O[C@@H]1[C@H](O)[C@@H](OC(C)=O)[C@@]2(C)[C@]12CO2 the mutagenic call (Species/Cell Type: Bacillus subtilis (H17 vs M45), Assay Type: Rec-assay, spot test, DNA effects (bacterial DNA repair), Assay Code: REW-, Evaluation Type: Evaluation A (Pre-1980)) was “inactive; negative”, the mutagenic call [11] was “inactive; negative” and the mutagenic call [5] was “no conclusion”.

For Nc1ccc2c(c1)Cc1cc(N)ccc1-2, the mutagenic call [12] was “active; positive”.

In the case of Cc1cc(=O)oc2ccccc12, the mutagenic call (Species/Cell Type: Allium cepa, Assay Type: Chromosome aberrations, Assay Code: ALC+, Evaluation Type: Evaluation A (Pre-1980)) is reported as “active; positive”.

With C=CCCl the mutagenic call (Species/Cell Type: Escherichia coli polA (W3119 vs P3478), Assay Type: Rec-assay, DNA effects (bacterial DNA repair), Assay Code: RE1+, Evaluation Type: Evaluation A (Pre-1980)) was “active; positive”, the mutagenic call [4] was “active; positive” and the mutagenic call (Species/Cell Type: Saccharomyces cerevisiae, Assay Type: Mitotic recombination or gene conversion, Assay Code: YEH+, Evaluation Type: Evaluation A (Pre-1980)) was “active; positive”.

For O=C1OC(O)C(C(Cl)Cl)=C1Cl (stereo not given), the mutagenic call (Species/Cell Type: Mammalian polychromatic erythrocytes, Assay Type: Micronucleus test, chromosome aberrations, Assay Code: MNT-, Evaluation Type: Evaluation B (Post-1980)) was “inactive; negative”.

With O=C=Nc1ccc2ccccc2c1 the mutagenic call (Species/Cell Type: Nonhuman, Assay Type: Sister-chromatid exchange (SCE) in vitro, Assay Code: SC2+D, Dose Response: With dose response, Evaluation Type: Evaluation B (Post-1980)) was “active; positive”.

In the case of CC(C)[C@H](NC(=O)[C@H](CCCN=C(N)N)NC(=O)N[C@@H](Cc1ccccc1)C(=O)O)C(=O)N[C@H](C=O)CCCN=C(N)N ({Phe-CO}-Arg-Val-Arg-aldehyde), the mutagenic call [6] is reported as “active; positive”, the mutagenic call (Species/Cell Type: Mouse (C3H/10T1/2) cells, Assay Type: Cell transformation, Assay Code: CTH-, Evaluation Type: Evaluation A (Pre-1980)) is reported as “inactive; negative” and the mutagenic call [10] is reported as “no conclusion”.

For c1ccc(-c2ccc(C3CO3)cc2)cc1 (stereo not given), the mutagenic call [12] was “active; positive”.

For c1ccc(-c2ccccc2)cc1, the mutagenic call (Species/Cell Type: Human diploid fibroblasts, Assay Type: Unscheduled DNA synthesis (UDS) in vitro, DNA effects, Assay Code: UDH-, Evaluation Type: Evaluation A (Pre-1980)) was “inactive; negative”, the mutagenic call [8] was “active; positive” and the mutagenic call (Species/Cell Type: Rat primary hepatocytes, Assay Type: Unscheduled DNA synthesis (UDS) in vitro, DNA effects, Assay Code: UDP-, Evaluation Type: Evaluation A (Pre-1980)) was “inactive; negative”. The mutagenic call [11] was “inactive; negative”.

With CC(CNC(=O)N(CCCl)N=O)NC(=O)N(CCCl)N=O (stereo not given) the mutagenic call [3] was “active; positive” and the mutagenic call [4] was “active; positive”.

O=C(O)c1ccccc1NCCc1ccccc1 was tested, and the mutagenic call [2] was “no conclusion”.

In the case of CCN(CCCl)CCCNc1ccnc2cc(Cl)ccc12, the mutagenic call (Species/Cell Type: Neurospora crassa, Assay Type: Reverse gene mutation, Assay Code: NER+, Evaluation Type: Evaluation A (Pre-1980)) is reported as “active; positive”.

CN(C)c1ccc(N=NS(=O)(=O)O)cc1 was tested, and the mutagenic call (Species/Cell Type: Bacillus subtilis (H17 vs M45), Assay Type: Rec-assay, spot test, DNA effects (bacterial DNA repair), Assay Code: REW+, Evaluation Type: Evaluation A (Pre-1980)) was “active; positive”, the mutagenic call (Species/Cell Type: Escherichia coli WP2, Assay Type: Tryptophan reverse gene mutation, Assay Code: WP2+, Evaluation Type: Evaluation A (Pre-1980)) was “active; positive” and the mutagenic call (Species/Cell Type: Escherichia coli WP2 UVRA, Assay Type: Tryptophan reverse gene mutation, Assay Code: WPU+, Evaluation Type: Evaluation A (Pre-1980)) was “active; positive”. The mutagenic call [13] was “active; positive”, the mutagenic call [14] was “active; positive” and the call (Species/Cell Type: Nonhuman, Assay Code: CCG-, Evaluation Type: Evaluation A (Pre-1980)) was “inactive; negative”. The mutagenic call (Species/Cell Type: Nonhuman, Assay Type: Sister-chromatid exchange (SCE) in vitro, Assay Code: SC2+, Evaluation Type: Evaluation B (Post-1980)) was “active; positive” and the mutagenic call [12] was “active; positive”.

With ClC1=C(Cl)[C@]2(Cl)[C@@H]3[C@@H](Cl)[C@H]4O[C@H]4[C@@H]3[C@@]1(Cl)C2(Cl)Cl the mutagenic call [7] was “no conclusion”, the mutagenic call (Species/Cell Type: Rodents, Sex: Male, Assay Type: Dominant lethal test, Assay Code: DLT-, Evaluation Type: Evaluation A (Pre-1980)) was “inactive; negative” and the mutagenic call [5] was “no conclusion”.

With O=C(O)c1ccccc1C(=O)Nc1cccc2ccccc12 the mutagenic call (Species/Cell Type: Hordeum vulgare (barley), Assay Type: Chromosome aberrations, Assay Code: HOC+, Evaluation Type: Evaluation A (Pre-1980)) was “active; positive” and the mutagenic call (Species/Cell Type: Vicia faba, Assay Type: Chromosome aberrations, Assay Code: VIC+, Evaluation Type: Evaluation A (Pre-1980)) was “active; positive”.

For Cn1cccc1CO, the mutagenic call [13] was “active; positive” and the mutagenic call [14] was “active; positive”.

Nc1ccc(-c2ccc(-c3ccc(N)cc3)cc2)cc1 was tested, and the mutagenic call (Species/Cell Type: Mammalian polychromatic erythrocytes, Assay Type: Micronucleus test, chromosome aberrations, Assay Code: MNT+, Evaluation Type: Evaluation B (Post-1980)) was “active; positive”.

In the case of CCN(CC)Cc1cc(Br)ccc1OCC(=O)N/N=C\c1ccc(OC)cc1, the mutagenic call [15] is reported as “no conclusion”.

CC1=C(/C=C/C(C)=C/C=C/C(C)=C\C(=O)O)C(C)(C)CCC1 was tested, and the mutagenic call [14] was “active; positive”.

O=C(OCN=Nc1ccccc1)c1ccccc1 was tested, and the mutagenic call (Species/Cell Type: Escherichia coli polA (W3119 vs P3478), Assay Type: Rec-assay, DNA effects (bacterial DNA repair), Assay Code: RE1T, Evaluation Type: Evaluation A (Pre-1980)) was “no conclusion”.

COc1ccc(/C=N/NC(=O)COc2ccc(Br)cc2CN2CCOCC2)cc1 was tested, and the mutagenic call [15] was “no conclusion”.
